Patent publication US20260216368A1, “BIS-ESTER AND AMIDE CATIONIC LIPIDS” (SANOFI PASTEUR INC., priority 2022, published 2026)

Key:
[1] = DLS size and polydispersity of hEPO mRNA lipid nanoparticles; assay type: physicochemical; settings: Table 3, further LNPs; hEPO mRNA LNP, Cationic Lipid:DMG-PEG2000:Cholesterol:DOPE=40:1.5:28.5:30, N/P ratio 4, Process A
Protocol: The lipid nanoparticles in the examples of the present invention were formulated using Process A of WO 2018/089801 (see, e.g., Example 1 and FIG. 1 of WO 2018/089801). Process A (“A”) relates to a conventional method of encapsulating mRNA by mixing mRNA with a mixture of lipids, without first pre-forming the lipids into lipid nanoparticles. In an exemplary process, an ethanol lipid solution and an aqueous buffered solution of mRNA were prepared separately. A solution of mixture of lipids (cationic lipid, helper lipids, zwitterionic lipids, PEG lipids etc.) was prepared by dissolving lipids in ethanol. The mRNA solution was prepared by dissolving the mRNA in citrate buffer. Then, these two solutions were mixed using a pump system. In some instances, the two solutions were mixed using a gear pump system. In certain embodiments, the two solutions were mixing using a ‘T’ junction (or “Y” junction). The mixture was then purified by diafiltration with a TFF process. The resultant formulation concentrated and stored at 2-8° C. until further use.
(§1) Lipid nanoparticle formulations of Table 1 were prepared by Process A. More specifically, an ethanolic solution of a mixture of lipids including DMG-PEG-2000, cationic lipid, cholesterol, and phosphatidylethanolamine (DOPE) in a ratio of 1.5:40:28.5:30 were combined with an aqueous buffered solution (1 mM Citrate and 150 mM NaCl) of target mRNA at an acidic pH (4.5) under controlled conditions to yield a dispersion of uniform lipid nanoparticles (LNPs). Upon ultrafiltration and diafiltration into the final buffer, the resulting nanoparticle dispersions were diluted to required concentration using the final buffer (10% Trehalose), sterile filtered and stored frozen at −80° C. until use.
All of the lipid nanoparticle formulations comprised hEPO mRNA and the different lipids in following mol % ratios: Cationic Lipid: DMG-PEG2000; Cholesterol:DOPE=40:1.5:28.5:30.
DLS measurements were performed using a Malvern Instruments Zetasizer with a backscattering detector angle of 173° and a 4-mW, 633-nm He—Ne laser (Worcestershire, UK). The samples were analyzed by diluting in 10% Trehalose and measuring the size and Poly dispersity Index (PDI) in an optical grade polystyrene cuvette.
The following lipid nanoparticles were formulated according to Example 51.
as §1, with “Table 3” for “Table 1”

[2] = RiboGreen assay, % encapsulation of mRNA in lipid nanoparticles; assay type: physicochemical; settings: Table 3, further LNPs; hEPO mRNA LNP, Cationic Lipid:DMG-PEG2000:Cholesterol:DOPE=40:1.5:28.5:30, N/P ratio 4, Process A
From the text: In embodiments, the lipid nanoparticle encapsulates a nucleic acid, optionally an mRNA encoding a peptide or protein. In embodiments, the peptide is an antigen. In embodiments, the lipid nanoparticle encapsulates an mRNA encoding a peptide or protein. As used herein, the phrase “encapsulation percentage” refers to the fraction of therapeutic agent (e.g. mRNA) that is effectively encapsulated within a liposomal-based vehicle (e.g. a lipid nanoparticle) relative to the initial fraction of therapeutic agent present in the lipid phase. In embodiments, the lipid nanoparticles have an encapsulation percentage for mRNA of at least 50%. In embodiments, the lipid nanoparticles have an encapsulation percentage for mRNA of at least 55%. In embodiments, the lipid nanoparticles have an encapsulation percentage for mRNA of at least 60%. In embodiments, the lipid nanoparticles have an encapsulation percentage for mRNA of at least 65%. In embodiments, the lipid nanoparticles have an encapsulation percentage for mRNA of at least 70%. In embodiments, the lipid nanoparticles have an encapsulation percentage for mRNA of at least 75%. In embodiments, the lipid nanoparticles have an encapsulation percentage for mRNA of at least 80%. In embodiments, the lipid nanoparticles have an encapsulation percentage for mRNA of at least 85%. In embodiments, the lipid nanoparticles have an encapsulation percentage for mRNA of at least 90%. In embodiments, the lipid nanoparticles have an encapsulation percentage for mRNA of at least 95%. In embodiments, the encapsulation percentage is calculated by performing the Ribogreen assay (Invitrogen) with and without the presence of 0.1% Triton-X 100.
The RiboGreen Assay is a fluorescence-based method for the determination of mRNA concentration (Total and Free) and % encapsulation using Quant-iT™ RiboGreen® RNA reagent in mRNA containing lipid nanoparticles.
• To each of the standards (Blank, mRNA-1, mRNA-2. mRNA-3, mRNA-4, mRNA-5) and Samples (free mRNA and total mRNA), add 1.0 mL of 200-fold Ribogreen Reagent Solution and gently mix by inversion. This is a 2× Dilution. • Add 200 μL of each standard and sample in triplicate using the reverse pipetting technique in a 96-well Costar Black with Clear Background Plate. Ensure no bubbles are present in the plate before the fluorescence reading. • Read the fluorescence signal using the below instrument parameters: • Read Type: Fluorescence, Bottom Read • Excitation: 485 nm; Cut-off: 515 nm; Emission: 530 nm • Plate Type: 96-well Costar Black with Clear Background
The average fluorescence from each calibration standard is plotted against the concentration to generate a linear calibration curve using the MS Excel software. The coefficient of determination (R^2) of calibration curve must be R^2>0.99.
[formula] • Where, • Y=average fluorescence value • m: slope • x: concentration (pg/mL) • c: y-intercept • Using the linear equation, calculate the concentration of free and total mRNA concentration in the test sample by replacing the y value in the equation with the average fluorescence value of each respective sample • Once the concentration is determined, the actual concentration in the sample can be back-calculated by multiplying the concentration in the test sample with the dilution factor (DF) as follows:
[formula] • Concentration of encapsulated mRNA can be determined by subtracting the concentration of free mRNA from the total mRNA. • % Encapsulation can then be calculated by taking the ratio of encapsulated mRNA over total mRNA and multiplying the result with 100.

[3] = system: Human erythropoietin (hEPO) levels in sera; assay: Delivery of hEPO mRNA by intramuscular administration of lipid nanoparticles; serum hEPO by ELISA; assay type: in vivo, Mouse; settings: serum, 6 hours post dose, 0.1 μg/animal hEPO mRNA LNP, IM, mice, n=4
Protocol: WO2022/099003 A1 describes an in vivo assay for intramuscular administration (e.g. on page 46, paragraph [00206]). Further details of the intramuscular experiment performed in this application are provided below.
Treatment Regimen: On Day 1, animals from Groups 1-8 were dosed via intramuscular injection while under light isoflurane anesthesia according to the study design table above. Animals in Groups 2-8 were injected with EPO in the right leg only. Group 1 animals received saline control.
Interim Sample Collections: Interim whole blood (~50 μL) was collected by tail snip or saphenous vein at 6 hours post dose administration (±5%). Blood samples were collected into serum separator tubes, allowed to clot at room temperature for at least 10 minutes, centrifuged at ambient temperature at minimum 1000 g for 10 minutes and the serum was extracted. All serum samples were stored at nominally −70° C. until analysis hEPO by the Testing Facility. The results of the EPO analysis were included in the Data Submission.
Terminal Blood Collections: Whole blood was collected via cardiac puncture into serum separator tube, allowed to clot at room temperature for at least 10 minutes, centrifuged at ambient temperature at minimum 1000 g for 10 minutes and the serum was extracted. Serum samples were stored at nominally −70° C. until analyzed for hEPO by the Test Facility.
ELISA Assay: Human erythropoietin (hEPO) levels in sera samples were determined by ELISA kit (R&D systems, Cat #DEP-00) according to the manufactory instruction and the results were included in the Data Submission. The “shaker” protocol was used. The serum samples were diluted between 1:40 and 1:100.
The ability of the further exemplary lipid nanoparticles in Example 54 to deliver hEPO mRNA by intramuscular administration was tested in accordance with the experimental protocol set out in Example 52.

Row | Compound | PDI [1] | Size (nm) [1] [nm] | Encapsulation Percentage (%) [2] [%] | hEPO 6 Hr (ng/mL) Mean ([3]; fourth occasion) [ng/mL] | hEPO 6 Hr (ng/mL) Mean ([3]; second occasion) [ng/mL] | hEPO 6 Hr (ng/mL) Mean ([3]; fifth occasion) [ng/mL] | hEPO 6 Hr (ng/mL) Mean ([3]; first occasion) [ng/mL] | hEPO 6 Hr (ng/mL) Mean ([3]; third occasion) [ng/mL]
1 | CCCCCCCCCCC(O)CN(CCCOC(=O)[C@H](CCc1ccc(O)cc1)NC(=O)CCCN(CC(O)CCCCCCCCCC)CC(O)CCCCCCCCCC)CC(O)CCCCCCCCCC (stereo partly drawn) [Compound C, 3-[bis(2-hydroxydodecyl)amino]propyl (S)-2-{4-[bis(2-hydroxydodecyl)amino]butyrylamino}-4-(p-hydroxyphenyl)butyrate] | 0.093 | 108 | 82 | 37.2 |  |  |  | 
2 | CCCCCCCCCCC(O)CN(CCCOC(=O)[C@H](Cc1c[nH]c2ccccc12)NC(=O)CCCN(CC(O)CCCCCCCCCC)CC(O)CCCCCCCCCC)CC(O)CCCCCCCCCC (stereo partly drawn) [Compound CI, 3-(bis(2-hydroxydodecyl)amino)propyl (4-(bis(2-hydroxydodecyl)amino)butanoyl)-L-tryptophanate] | 0.155 | 135 | 85 |  | 40.5 |  |  | 
3 | CCCCCCCCCCC(O)CN(CCCOC(=O)N[C@@H](Cc1c[nH]cn1)C(=O)OCCCN(CC(O)CCCCCCCCCC)CC(O)CCCCCCCCCC)CC(O)CCCCCCCCCC (stereo partly drawn) [Compound CIII, 3-(bis(2-hydroxydodecyl)amino)propyl ((3-(bis(2-hydroxydodecyl)amino)propoxy)carbonyl)-L-histidinate] | 0.126 | 93 | 91 | 15.4 |  |  |  | 
4 | CCCCCCCCCCCOC(=O)CCCC(O)CN(CCCCN(C)C(=O)CN(C)CC(=O)N(C)CCCCN(CC(O)CCCCCC(=O)OC(CCCCCCCC)CCCCCCCC)CC(O)CCCC(=O)OCCCCCCCCCCC)CC(O)CCCCCC(=O)OC(CCCCCCCC)CCCCCCCC (stereo not drawn) [Compound LXXVII, di(heptadecan-9-yl) 7,27-dihydroxy-9,25-bis(2-hydroxy-6-oxo-6-(undecyloxy)hexyl)-14,17,20-trimethyl-15,19-dioxo-9,14,17,20,25-pentaazatritriacontanedioate] | 0.137 | 114 | 99 |  |  | 45.6 |  | 
5 | CCCCCCCCCCC(O)CN(CCCNC(=O)CC(C)(C)CC(=O)NCCCN(CC(O)CCCCCCCCCC)CC(O)CCCCCCCCCC)CC(O)CCCCCCCCCC (stereo not drawn) [Compound LXXXVII, N,N′-bis({3-[bis(2-hydroxydodecyl)amino]propyl})-3,3-dimethylpentanediamide] | 0.111 | 123 | 88 |  |  |  | 29.1 | 
6 | CCCCCCCCCCC(=O)OCCCCC(O)CN(CCCCNC(=O)CC(C)(O)CC(=O)NCCCCN(CC(O)CCCCCOC(=O)C(CCCCCCCC)CCCCCCCC)CC(O)CCCCOC(=O)CCCCCCCCCC)CC(O)CCCCCOC(=O)C(CCCCCCCC)CCCCCCCC (stereo not drawn) [Compound XCIV] | 0.085 | 138 | 96 |  |  | 36.4 |  | 
7 | CCCCCCCCCCC(O)CN(CCCOC(=O)[C@H](Cc1ccc(O)cc1)NC(=O)CCCN(CC(O)CCCCCCCCCC)CC(O)CCCCCCCCCC)CC(O)CCCCCCCCCC (stereo partly drawn) [Compound XCIX, 3-(bis(2-hydroxydodecyl)amino)propyl (4-(bis(2-hydroxydodecyl)amino)butanoyl)-L-tyrosinate] |  |  |  |  |  |  |  | 38.1
8 | CCCCCCCCCCC(O)CN(CCCOC(=O)[C@H](Cc1ccccc1)NC(=O)CCCN(CC(O)CCCCCCCCCC)CC(O)CCCCCCCCCC)CC(O)CCCCCCCCCC (stereo partly drawn) [Compound XCV, 3-[bis(2-hydroxydodecyl)amino]propyl (S)-2-{4-[bis(2-hydroxydodecyl)amino]butyrylamino}-3-phenylpropionate] | 0.191 | 94 | 66 | 22.4 |  |  |  | 
9 | CCCCCCCCCCC(O)CN(CCCOC(=O)[C@H](CCc1ccccc1)NC(=O)CCCN(CC(O)CCCCCCCCCC)CC(O)CCCCCCCCCC)CC(O)CCCCCCCCCC (stereo partly drawn) [Compound XCVI, 3-(bis(2-hydroxydodecyl)amino)propyl (2S)-2-(4-(bis(2-hydroxydodecyl)amino)butanamido)-4-phenylbutanoate] | 0.166 | 123 | 85 | 37.3 |  |  |  | 
